Experimental findings from patent US20130096105A1, “ArylSulfonamide Based Matrix Metalloprotease Inhibitors” (NOVARTIS AG, priority 2008, published 2013) are described below.

By IC50 is commonly meant the concentration at which inhibition is half-maximal. One may read the melting point as the temperature, or range, at which the solid turns liquid.

The target in one series is T1, Gelatinase (MMP-2) (Homo sapiens, UniProt P08253).
T1 sequence (P08253 110-660): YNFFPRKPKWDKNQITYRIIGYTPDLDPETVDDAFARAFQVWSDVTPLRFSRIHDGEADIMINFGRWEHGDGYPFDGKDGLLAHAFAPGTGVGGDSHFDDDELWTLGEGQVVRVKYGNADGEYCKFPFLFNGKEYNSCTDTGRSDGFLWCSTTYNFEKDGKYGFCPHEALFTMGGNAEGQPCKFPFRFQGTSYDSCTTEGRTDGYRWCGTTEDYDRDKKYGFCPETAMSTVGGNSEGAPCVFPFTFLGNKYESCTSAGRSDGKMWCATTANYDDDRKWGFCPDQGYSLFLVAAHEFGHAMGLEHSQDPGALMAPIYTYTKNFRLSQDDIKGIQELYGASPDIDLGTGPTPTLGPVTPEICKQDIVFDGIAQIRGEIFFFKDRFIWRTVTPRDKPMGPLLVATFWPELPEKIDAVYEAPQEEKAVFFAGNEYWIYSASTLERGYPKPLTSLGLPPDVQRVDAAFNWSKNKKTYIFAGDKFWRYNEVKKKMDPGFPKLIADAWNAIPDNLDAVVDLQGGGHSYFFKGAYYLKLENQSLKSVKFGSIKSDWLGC
Nature of the series: Gelatinase (MMP-2) inhibitory activity, fluorogenic peptide substrate cleavage. Type of series: biochemical. The note with it: read-out: MMP02 IC50. Summed up: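 Fluorogenic assay with MCA-Lys-Pro-Leu-Gly-Leu-Dpa-Ala-Arg-NH2 at 5 μM in Tris-Cl pH 7.5 buffer with ZnCl2, CaCl2, Brij-35 and 1.0% DMSO, 20-25 °C. Enzyme preincubated with inhibitor 60 min; fluorescence (ex 325/em 405 nm) read 60 min after substrate addition. IC50 relative to uninhibited control.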

Another series addresses Collagenase-3 (MMP-13) (Homo sapiens, UniProt P45452). Nature of the series: Collagenase-3 (MMP-13) inhibitory activity, fluorogenic peptide substrate cleavage. Type of series: biochemical. The note with it: read-out: MMP13 IC50. A digest of the protocol: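 Recombinant pro-MMP-13 activated with 1 mM APMA; inhibitor preincubated 60 min, then 5 μM MCA-Lys-Pro-Leu-Gly-Leu-Dpa-Ala-Arg-NH2 added in Tris-Cl pH 7.5 buffer with Zn2+, Ca2+, Brij-35, 1.0% DMSO, 20-25 °C. Fluorescence (ex 325/em 405 nm) read after 60 min; IC50 versus uninhibited control.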

`COc1ccc(C(=O)c2cccc(S(N)(=O)=O)c2)cc1` [Example 1, 3-(4-Methoxy-benzoyl)-benzenesulfonamide] showed a melting point of 119 to 122 °C. For the same compound, the IC50 at Gelatinase (MMP-2) worked out at 1.92 µM. For the same compound, the 50% inhibitory concentration (IC50) on Collagenase-3 (MMP-13) is 2.49 µM.

Compound `COc1ccc(C(=O)c2ccc(Cl)c(S(N)(=O)=O)c2)cc1` [Example 3, 2-Chloro-5-(4-methoxy-benzoyl)-benzenesulfonamide] showed a melting point of 156 to 158 °C. The IC50 on Gelatinase (MMP-2) was 5.18 µM. Besides, the IC50 on Collagenase-3 (MMP-13) was 2.02 µM.

In turn, `C#Cc1ccc(C(=O)c2ccc(Cl)c(S(N)(=O)=O)c2)cc1` [Example 31, 2-Chloro-5-(4-ethynyl-benzoyl)-benzenesulfonamide] gave a melting point of 147 to 149 °C. In addition, the IC50 at Gelatinase (MMP-2) was found to be 10.4 µM. Moreover, the IC50 at Collagenase-3 (MMP-13) came to 12.4 µM.

The compound `NS(=O)(=O)c1cc(C(=O)c2ccc(-c3ccc4ccccc4c3)cc2)ccc1Cl` [Example 38, 2-Chloro-5-(4-naphthalen-2-yl-benzoyl)-benzenesulfonamide] yielded a melting point of 193 to 195 °C. Also, the IC50 on Gelatinase (MMP-2) came to 14.5 µM. In addition, on Collagenase-3 (MMP-13), the IC50 came to 8.58 µM.

In the case of `NS(=O)(=O)c1cc(C(=O)c2ccc(-c3cccnc3)cc2)ccc1Cl` [Example 41, 2-Chloro-5-(4-pyridin-3-yl-benzoyl)-benzenesulfonamide], the melting point lay in the range of 190 to 192 °C. For the same compound, the IC50 on Gelatinase (MMP-2) is over 9 µM. In addition, the IC50 on Collagenase-3 (MMP-13) was 7.52 µM.

As for `NS(=O)(=O)c1cc(C(=O)c2ccc(O)c(F)c2)ccc1Cl` [Example 47, 2-Chloro-5-(3-fluoro-4-hydroxy-benzoyl)-benzenesulfonamide], the melting point was in the range of 206 to 208 °C. Also, the IC50 on Gelatinase (MMP-2) was 17.3 µM. Besides, the IC50 on Collagenase-3 (MMP-13) turned out to be 11.1 µM.

Take `NS(=O)(=O)c1cc(C(=O)c2ccc(O)cc2F)ccc1Cl` [Example 50, 2-Chloro-5-(2-fluoro-4-hydroxy-benzoyl)-benzenesulfonamide]: the melting point lay in the range of 183 to 185 °C. At Gelatinase (MMP-2), the IC50 came out at 24.3 µM. For the same compound, on Collagenase-3 (MMP-13), the IC50 turned out to be 21.3 µM.

In turn, `NS(=O)(=O)c1cc(C(=O)c2ccc(C(=O)N3CCCC3)cc2)ccc1Cl` [Example 53, 2-Chloro-5-[4-(pyrrolidine-1-carbonyl)-benzoyl]-benzenesulfonamide] displayed a melting point of 146 to 148 °C. In addition, at Gelatinase (MMP-2), the IC50 is over 30 µM. Also, the IC50 on Collagenase-3 (MMP-13) is over 30 µM.

For the compound `Cc1cccc(-c2ccc(C(=O)c3ccc(Cl)c(S(N)(=O)=O)c3)cc2)c1` [Example 60, 2-Chloro-5-(3′-methyl-biphenyl-4-carbonyl)-benzenesulfonamide], the melting point is 176 to 178 °C. Besides, the IC50 on Gelatinase (MMP-2) was 6.31 µM. Further, at Collagenase-3 (MMP-13), the IC50 was determined as 5.44 µM.

For the compound `Nc1cccc(-c2ccc(C(=O)c3ccc(Cl)c(S(N)(=O)=O)c3)cc2)c1` [Example 69, 5-(3′-Amino-biphenyl-4-carbonyl)-2-chloro-benzenesulfonamide], the melting point lay in the range of 228 to 230 °C. Besides, at Gelatinase (MMP-2), the IC50 was 1.37 µM. The IC50 at Collagenase-3 (MMP-13) amounted to 2.41 µM.

In the case of `NS(=O)(=O)c1cc(C(=O)c2ccc(-c3cccc(C(F)(F)F)c3)cc2)ccc1Cl` [Example 75, 2-Chloro-5-(3′-trifluoromethyl-biphenyl-4-carbonyl)-benzenesulfonamide], the melting point lay in the range of 75 to 77 °C. Also, the IC50 on Gelatinase (MMP-2) is over 30 µM. At Collagenase-3 (MMP-13), the IC50 was found to be 25.9 µM.

With `NS(=O)(=O)c1cc(C(=O)c2ccc3c(c2)CCN3)ccc1Cl` [Example 110, 2-Chloro-5-(2,3-dihydro-1H-indole-5-carbonyl)-benzenesulfonamide], the melting point fell in the range of 55 to 56 °C. Further, at Gelatinase (MMP-2), the IC50 is 12 µM. Moreover, the IC50 at Collagenase-3 (MMP-13) came to 16.1 µM.

Compound `NS(=O)(=O)c1cc(C(=O)c2ccc3[nH]ccc3c2)ccc1Cl` [Example 116, 2-Chloro-5-(1H-indole-5-carbonyl)-benzenesulfonamide] yielded a melting point of 65 to 66 °C. Further, at Gelatinase (MMP-2), the IC50 came to 15.4 µM. Besides, the IC50 at Collagenase-3 (MMP-13) came to 15.3 µM.

As to `Cc1ccc(C(=O)c2ccc3cc[nH]c3c2)cc1S(N)(=O)=O` [Example 145, 5-(1H-Indole-6-carbonyl)-2-methyl-benzenesulfonamide], the IC50 amounted to 0.2 µM on Gelatinase (MMP-2) and 0.1 µM on Collagenase-3 (MMP-13).

In the case of `NS(=O)(=O)c1cccc(C(=O)c2ccc3cc[nH]c3c2)c1` [Example 146, 3-(1H-Indole-6-carbonyl)-benzenesulfonamide], the IC50 on Gelatinase (MMP-2) was determined as 0.24 µM; on Collagenase-3 (MMP-13), 0.2 µM.

As for `Cc1cc(-c2c[nH]c3cc(C(=O)c4ccc(C)c(S(N)(=O)=O)c4)ccc23)ccn1` [Example 147, 2-Methyl-5-[3-(2-methyl-pyridin-4-yl)-1H-indole-6-carbonyl]-benzenesulfonamide], the IC50 on Gelatinase (MMP-2) amounted to 2.4 µM; on Collagenase-3 (MMP-13), 0.02 µM.
